Source: PubChem BioAssay (NCI)
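Test compounds were applied to cells in 96-well plates for 48 hours at 5 doses. Definition used: TGI = concentration required for complete inhibition of growth.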

What was measured:
Assay in all cases: growth of human tumour cells (NCI), 48 h
[1] = tested on: RXF 393 renal
[2] = tested on: MDA-N
[3] = tested on: HCT-15 colon
[4] = tested on: LOX IMVI melanoma
[5] = tested on: NCI-H23 lung
[6] = tested on: EKVX NSCLC
[7] = tested on: SN12C renal
[8] = tested on: OVCAR-8 ovarian
[9] = tested on: UACC-62 melanoma
[10] = tested on: HT29 colon
[11] = tested on: OVCAR-5 ovarian
[12] = tested on: CCRF-CEM leukemia
[13] = tested on: 786-0 renal
[14] = tested on: SW-620 colon
[15] = tested on: SNB-19 CNS
[16] = tested on: HCT-116 colon
[17] = tested on: ACHN renal
[18] = tested on: K-562 leukemia
[19] = tested on: HOP-92 NSCLC
[20] = tested on: PC-3 prostate
[21] = tested on: KM12 colon
[22] = tested on: UO-31 renal
[23] = tested on: HOP-62 NSCLC
[24] = tested on: MOLT-4 leukemia
[25] = tested on: MDA-MB-435
[26] = tested on: SNB-75 CNS
[27] = tested on: CAKI-1 renal
[28] = tested on: SK-MEL-2 melanoma
[29] = tested on: MDA-MB-231 breast
[30] = tested on: IGROV1 ovarian
[31] = tested on: U251 CNS
[32] = tested on: NCI/ADR-RES ovarian
[33] = tested on: NCI-H226 lung
[34] = tested on: UACC-257 melanoma
[35] = tested on: DU-145 prostate
[36] = tested on: RPMI-8226 leukemia
[37] = tested on: T-47D breast
[38] = tested on: SK-OV-3 ovarian
[39] = tested on: TK-10 renal
[40] = tested on: M14 melanoma
[41] = tested on: OVCAR-4 ovarian
[42] = tested on: MCF7 breast
[43] = tested on: SF-539 CNS
[44] = tested on: NCI-H522 lung
[45] = tested on: HL-60(TB) leukemia
[46] = tested on: MALME-3M melanoma
[47] = tested on: HCC-2998 colon
[48] = tested on: OVCAR-3 ovarian
[49] = tested on: SF-295 CNS
[50] = tested on: COLO 205 colon
[51] = tested on: SK-MEL-5 melanoma
[52] = tested on: A498 renal
[53] = tested on: A549 NSCLC
[54] = tested on: SK-MEL-28 melanoma
[55] = tested on: NCI-H460 lung
[56] = tested on: SF-268 CNS
[57] = tested on: BT-549 breast
[58] = tested on: SR leukemia

Measured: TGI

CCCCCCCCCCCCCCCCCCOP1(=O)OCCO1
75.4 µM: [1]
83.9 µM: [20]
75.3 µM: [45]
not listed: [55] | [56] | [57] | [58]
> 100 µM: all other assays above

Cc1nn(-c2ccccc2)c2nc3c(c(C)nn3-c3ccccc3)c(-c3ccc(C(F)(F)F)cc3)c12
92.6 µM: [26]
not listed: [28] | [30] | [44] | [46] | [57] | [58]
> 100 µM: all other assays above

NC(Cc1ccc(O)c(O)c1)P(=O)(O)O (stereo not drawn)
95.7 µM: [37]
45.7 µM: [45]
68.6 µM: [12]
43.2 µM: [14]
20.1 µM: [44]
42 µM: [18]
not listed: [4] | [6] | [23] | [38] | [42] | [50]
> 100 µM: all other assays above
